Measurements taken from ChEMBL document CHEMBL1146299, “Molecular modeling of binding between amidinobenzisothiazoles, with antidegenerative activity on cartilage, and matrix metalloproteinase-3” (Bioorg Med Chem, 2007).

Assay: Dissociation constant, pKa of the compound
Type: physicochemical

Compound | pKa
N=C(Nc1nsc2ccccc12)c1ccccc1 | 5.4
CC(=N)Nc1nsc2ccccc12 | 6.99
N=C(Nc1nsc2ccccc12)c1ccc(Cl)cc1 | 4.84
